The target of one assay is human TLR7 (Homo sapiens (Human), UniProt Q9NYK1). Nature of the assay: HEK-Blue human TLR7 cells NF-κB SEAP reporter assay. The format is cell-based. The note with it: stimulation for 20 hours. An excerpt: (§1) For TLR8 and TLR7 activity testing, HEK-Blue human TLR8 or TLR7 cells (Invivogen, San Diego, Calif., USA) are used, respectively. These cells are designed for studying the stimulation of human TLR8 or TLR7 by monitoring the activation of NF-κB. A SEAP (secreted embryonic alkaline phosphatase) reporter gene is placed under the control of the IFN-b minimal promoter fused to five NF-κB and AP-1-binding sites. Therefore the reporter expression is regulated by the NF-κB promoter upon stimulation of human TLR8 or TLR7 for 20 hours. The cell culture supernatant SEAP reporter activity was determined using Quanti Blue kit (Invivogen, San Diego, Ca, USA) at a wavelength of 640 nm, a detection medium that turns purple/blue in the presence of alkaline phosphatase. EC50 values were determined using Activity Base analysis (ID Business Solution, Limited).
human TLR7, sequence (Q9NYK1 27-1049): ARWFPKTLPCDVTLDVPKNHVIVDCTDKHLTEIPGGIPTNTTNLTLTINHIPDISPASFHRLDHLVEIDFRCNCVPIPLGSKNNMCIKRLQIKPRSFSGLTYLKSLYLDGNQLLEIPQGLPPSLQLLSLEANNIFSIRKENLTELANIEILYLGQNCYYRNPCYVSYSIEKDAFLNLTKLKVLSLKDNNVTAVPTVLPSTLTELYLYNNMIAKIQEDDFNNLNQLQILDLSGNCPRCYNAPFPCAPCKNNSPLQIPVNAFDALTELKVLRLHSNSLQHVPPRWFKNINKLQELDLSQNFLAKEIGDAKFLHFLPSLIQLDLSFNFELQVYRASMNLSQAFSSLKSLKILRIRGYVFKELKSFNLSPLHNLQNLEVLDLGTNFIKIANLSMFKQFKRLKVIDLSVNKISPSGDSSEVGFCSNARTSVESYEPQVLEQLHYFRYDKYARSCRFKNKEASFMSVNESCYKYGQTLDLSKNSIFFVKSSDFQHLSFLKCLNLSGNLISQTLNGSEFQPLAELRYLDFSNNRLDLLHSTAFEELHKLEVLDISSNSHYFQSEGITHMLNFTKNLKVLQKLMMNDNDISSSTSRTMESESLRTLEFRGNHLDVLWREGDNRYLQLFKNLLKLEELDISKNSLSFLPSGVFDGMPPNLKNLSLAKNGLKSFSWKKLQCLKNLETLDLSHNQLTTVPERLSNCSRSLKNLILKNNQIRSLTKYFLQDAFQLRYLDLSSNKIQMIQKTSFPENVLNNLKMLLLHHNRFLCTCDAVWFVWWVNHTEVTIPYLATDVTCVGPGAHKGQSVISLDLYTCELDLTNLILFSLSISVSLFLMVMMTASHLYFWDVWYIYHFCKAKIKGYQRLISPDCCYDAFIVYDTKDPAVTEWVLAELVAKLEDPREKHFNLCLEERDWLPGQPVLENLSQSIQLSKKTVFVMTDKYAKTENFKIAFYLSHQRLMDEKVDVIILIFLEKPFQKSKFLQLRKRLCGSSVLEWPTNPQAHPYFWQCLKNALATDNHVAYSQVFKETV
For orientation: Reporter assays use an easily measured gene product as a stand-in for the process of interest.

The target of a further assay is human TLR8 (Homo sapiens (Human), UniProt Q9NR97). Put plainly: HEK-Blue human TLR8 cells NF-κB SEAP reporter assay. The assay is classed as cell-based. The note with it: stimulation for 20 hours.
human TLR8, sequence (Q9NR97 27-1041): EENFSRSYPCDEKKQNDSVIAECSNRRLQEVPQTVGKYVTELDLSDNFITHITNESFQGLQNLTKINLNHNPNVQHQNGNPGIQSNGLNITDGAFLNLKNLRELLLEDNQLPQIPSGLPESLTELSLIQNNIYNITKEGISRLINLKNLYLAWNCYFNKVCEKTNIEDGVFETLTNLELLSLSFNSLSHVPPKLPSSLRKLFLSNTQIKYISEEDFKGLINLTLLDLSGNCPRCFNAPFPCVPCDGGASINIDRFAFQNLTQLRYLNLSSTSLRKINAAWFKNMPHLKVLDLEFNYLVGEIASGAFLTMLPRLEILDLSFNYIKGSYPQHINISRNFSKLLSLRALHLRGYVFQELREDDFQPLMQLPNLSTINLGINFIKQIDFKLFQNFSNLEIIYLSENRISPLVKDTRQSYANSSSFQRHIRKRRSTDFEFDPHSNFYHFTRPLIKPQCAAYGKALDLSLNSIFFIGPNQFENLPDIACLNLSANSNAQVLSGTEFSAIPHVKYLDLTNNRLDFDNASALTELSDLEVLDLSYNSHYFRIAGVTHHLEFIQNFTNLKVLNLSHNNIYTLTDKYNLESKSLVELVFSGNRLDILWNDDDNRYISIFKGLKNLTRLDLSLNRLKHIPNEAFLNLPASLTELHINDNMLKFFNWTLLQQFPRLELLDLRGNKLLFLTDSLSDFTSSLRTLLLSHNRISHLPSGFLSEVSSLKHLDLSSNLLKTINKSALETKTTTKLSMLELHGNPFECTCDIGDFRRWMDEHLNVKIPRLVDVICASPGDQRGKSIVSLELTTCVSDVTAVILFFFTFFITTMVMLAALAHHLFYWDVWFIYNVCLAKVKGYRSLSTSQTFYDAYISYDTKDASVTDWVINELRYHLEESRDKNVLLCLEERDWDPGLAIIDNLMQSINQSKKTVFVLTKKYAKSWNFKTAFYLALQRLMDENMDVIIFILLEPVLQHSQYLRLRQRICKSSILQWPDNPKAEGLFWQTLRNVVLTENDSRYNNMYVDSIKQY
Description: as §1

From US10370338B2, “Benzazepine dicarboxamide compounds with tertiary amide function” (Hoffmann-La Roche Inc., priority 2016, dated 2019) come the findings set out here.

Molecules are shown by their SMILES. Bounds are passed on as bounds.

Broadly, the EC50 is the concentration giving half of the maximal effect. Low values mean an effect from little substance, high ones a need for much substance. With `CCCN(CCC)C(=O)C1=Cc2ccc(C(=O)N3CC(CNc4ccccc4)C3)cc2N=C(N)C1` [Example 4, 2-Amino-8-[3-(anilinomethyl)azetidine-1-carbonyl]-N,N-dipropyl-3H-1-benzazepine-4-carboxamide], the values for the EC50 at human TLR7 and on human TLR8 were 10000 nM and 10 nM, respectively.
The matching figures for `CCCN(CCC)C(=O)C1=Cc2ccc(C(=O)N3CC4CN(c5ccccc5)C4C3)cc2N=C(N)C1` (stereo not drawn) [Example 16, 2-Amino-8-(6-phenyl-3,6-diazabicyclo[3.2.0]heptane-3-carbonyl)-N,N-dipropyl-3H-1-benzazepine-4-carboxamide]: 12000 nM and 29 nM.
Take `CCCN(CCC)C(=O)C1=Cc2ccc(C(=O)N3CCC4(CC3)CN(c3ccccc3)C4)cc2N=C(N)C1` [Example 13, 2-Amino-8-(2-phenyl-2,7-diazaspiro[3.5]nonane-7-carbonyl)-N,N-dipropyl-3H-1-benzazepine-4-carboxamide]: the EC50 is more than 100000 nM at human TLR7 and 7 nM at human TLR8.
Take `CCCN(CCC)C(=O)C1=Cc2ccc(C(=O)N3CCN(c4ccccc4)CC3)cc2N=C(N)C1` [Example 6, 2-Amino-8-(4-phenylpiperazine-1-carbonyl)-N,N-dipropyl-3H-1-benzazepine-4-carboxamide]: the results for the EC50 at human TLR7 and on human TLR8 were 9000 nM and 25 nM, respectively.
As to `CCCN(CCC)C(=O)C1=Cc2ccc(C(=O)N3CC4CC(C3)N4c3ccccc3)cc2N=C(N)C1` [Example 12, 2-Amino-8-(6-phenyl-3,6-diazabicyclo[3.1.1]heptane-3-carbonyl)-N,N-dipropyl-3H-1-benzazepine-4-carboxamide], the EC50 at human TLR7 worked out at 11000 nM; at human TLR8 it was 22 nM.
`CCCN(CCC)C(=O)C1=Cc2ccc(C(=O)N3CCC(Nc4ccccc4)CC3)cc2N=C(N)C1` [Example 2, 2-Amino-8-(4-anilinopiperidine-1-carbonyl)-N,N-dipropyl-3H-1-benzazepine-4-carboxamide]: the EC50 worked out at 7900 nM on human TLR7 and 6 nM on human TLR8.
Consider `C/C=C/COC1CN(C(=O)c2ccc3c(c2)N=C(N)CC(C(=O)N(CCC)CCC)=C3)C1` [Example 22, 2-Amino-8-[3-[(E)-but-2-enoxy]azetidine-1-carbonyl]-N,N-dipropyl-3H-1-benzazepine-4-carboxamide], for which the EC50 is 32000 nM on human TLR7 and 12 nM at human TLR8.
For `CCCN(CCC)C(=O)C1=Cc2ccc(C(=O)N3CC(NCc4ccccc4)C3)cc2N=C(N)C1` [Example 17, 2-Amino-8-[3-(benzylamino)azetidine-1-carbonyl]-N,N-dipropyl-3H-1-benzazepine-4-carboxamide], the figures for the EC50 at human TLR7 and on human TLR8 were 17000 nM and 18 nM, respectively.
In the same order, the values of `CCCN(CCC)C(=O)C1=Cc2ccc(C(=O)N3CCC(CNc4ccccc4)CC3)cc2N=C(N)C1` [Example 20, 2-amino-8-[4-(anilinomethyl)piperidine-1-carbonyl]-N,N-dipropyl-3H-1-benzazepine-4-carboxamide] are 10000 nM and 20 nM.
With `CCCN(CCC)C(=O)C1=Cc2ccc(C(=O)N3CCC(NCc4ccccc4)C3)cc2N=C(N)C1` (stereo not drawn) [Example 19, 2-Amino-8-[3-(benzylamino)pyrrolidine-1-carbonyl]-N,N-dipropyl-3H-1-benzazepine-4-carboxamide], the results for the EC50 at human TLR7 and at human TLR8 were 6600 nM and 14 nM, respectively.
The matching figures for `CCCN(CCC)C(=O)C1=Cc2ccc(C(=O)N3CC4(CCN(c5ccccc5)CC4)C3)cc2N=C(N)C1` [Example 14, 2-Amino-8-(7-phenyl-2,7-diazaspiro[3.5]nonane-2-carbonyl)-N,N-dipropyl-3H-1-benzazepine-4-carboxamide]: 33000 nM and 9 nM.
In the same order, the values of `CCCN(CCC)C(=O)C1=Cc2ccc(C(=O)N3CC4(CCN(c5ccccc5)C4)C3)cc2N=C(N)C1` [Example 7, 2-Amino-8-(7-phenyl-2,7-diazaspiro[3.4]octane-2-carbonyl)-N,N-dipropyl-3H-1-benzazepine-4-carboxamide] are more than 100000 nM and 10 nM.
Regarding `CCCN(CCC)C(=O)C1=Cc2ccc(C(=O)N3CCN(Cc4ccccc4)CC3)cc2N=C(N)C1` [Example 10, 2-Amino-8-(4-benzylpiperazine-1-carbonyl)-N,N-dipropyl-3H-1-benzazepine-4-carboxamide], the EC50 at human TLR7 worked out at 14000 nM; at human TLR8 it was 5 nM.
The matching figures for `CCCN(CCC)C(=O)C1=Cc2ccc(C(=O)N3CCCC3)cc2N=C(N)C1` [Example 8, 2-Amino-N,N-dipropyl-8-(pyrrolidine-1-carbonyl)-3H-1-benzazepine-4-carboxamide]: 21000 nM and 15 nM.
The matching figures for `CCCN(CCC)C(=O)C1=Cc2ccc(C(=O)N3CCC(CNc4ccccc4)C3)cc2N=C(N)C1` (stereo not drawn) [Example 21, 2-Amino-8-[3-(anilinomethyl)pyrrolidine-1-carbonyl]-N,N-dipropyl-3H-1-benzazepine-4-carboxamide]: 6980 nM and 9 nM.
Regarding `CCCN(CCC)C(=O)C1=Cc2ccc(C(=O)N3CC4CCC(C3)N4c3ccccc3)cc2N=C(N)C1` [Example 15, 2-Amino-8-(8-phenyl-3,8-diazabicyclo[3.2.1]octane-3-carbonyl)-N,N-dipropyl-3H-1-benzazepine-4-carboxamide], the EC50 on human TLR7 was determined as 16000 nM; on human TLR8, 10 nM.
Regarding `CCCN(CCC)C(=O)C1=Cc2ccc(C(=O)N3CCCC(Nc4ccccc4)C3)cc2N=C(N)C1` (stereo not drawn) [Example 23, 2-Amino-8-(3-anilinopiperidine-1-carbonyl)-N,N-dipropyl-3H-1-benzazepine-4-carboxamide], the values for the EC50 at human TLR7 and at human TLR8 were 400 nM and 8 nM, respectively.
In the same order, the values of `CCCCOC1CN(C(=O)c2ccc3c(c2)N=C(N)CC(C(=O)N(CCC)CCC)=C3)C1` [Example 25, 2-Amino-8-(3-butoxyazetidine-1-carbonyl)-N,N-dipropyl-3H-1-benzazepine-4-carboxamide] are 31100 nM and 8 nM.
Consider `CCCN(CCC)C(=O)C1=Cc2ccc(C(=O)N3CCC(Nc4ccccc4)C3)cc2N=C(N)C1` (stereo not drawn) [Example 5, 2-Amino-8-(3-anilinopyrrolidine-1-carbonyl)-N,N-dipropyl-3H-1-benzazepine-4-carboxamide], for which the EC50 was found to be 14000 nM at human TLR7 and 4 nM on human TLR8.
For the molecule `CCCN(CCC)C(=O)C1=Cc2ccc(C(=O)N3CCCC(NCc4ccccc4)C3)cc2N=C(N)C1` (stereo not drawn) [Example 24, 2-Amino-8-[3-(benzylamino)piperidine-1-carbonyl]-N,N-dipropyl-3H-1-benzazepine-4-carboxamide], the EC50 at human TLR7 was 3100 nM; at human TLR8, 14 nM.
As to `CCCN(CC1CC1)C(=O)C1=Cc2ccc(C(=O)N3CCC(Nc4ccccc4)CC3)cc2N=C(N)C1` [Example 9, 2-Amino-8-(4-anilinopiperidine-1-carbonyl)-N-(cyclopropylmethyl)-N-propyl-3H-1-benzazepine-4-carboxamide], the EC50 was found to be 18000 nM on human TLR7 and 20 nM at human TLR8.
For the molecule `CCCN(CCC)C(=O)C1=Cc2ccc(C(=O)N3CC4(C3)CN(c3ccc(C)cc3)C4)cc2N=C(N)C1` [Example 1, 2-Amino-N,N-dipropyl-8-[6-(p-tolyl)-2,6-diazaspiro[3.3]heptane-2-carbonyl]-3H-1-benzazepine-4-carboxamide], the EC50 on human TLR7 is more than 100000 nM; at human TLR8 it was 5 nM.
As for `CCCN(CCC)C(=O)C1=Cc2ccc(C(=O)N3CCC(Nc4ccc(CN)cc4)C3)cc2N=C(N)C1` (stereo not drawn) [Example 18, 2-Amino-8-[3-[4-(aminomethyl)anilino]pyrrolidine-1-carbonyl]-N,N-dipropyl-3H-1-benzazepine-4-carboxamide], the figures for the EC50 at human TLR7 and at human TLR8 were more than 100000 nM and 31 nM, respectively.
With `CCCN(CCC)C(=O)C1=Cc2ccc(C(=O)N3CC(Nc4ccccc4)C3)cc2N=C(N)C1` [Example 3, 2-Amino-8-(3-anilinoazetidine-1-carbonyl)-N,N-dipropyl-3H-1-benzazepine-4-carboxamide], the EC50 on human TLR7 was found to be 24000 nM; on human TLR8 it was 5 nM.
